{"source": "ChEMBL document CHEMBL6103547", "about": "“Comprehensive exploration of isocitrate dehydrogenase (IDH) mutations: Tumorigenesis, drug discovery, and covalent inhibitor advances” (Eur J Med Chem, 2025)", "key": {"[1]": {"assay": "Inhibition of IDH2 R172S mutant (unknown origin)", "design": "species or system Homo sapiens"}, "[2]": {"assay": "Downregulation of HoxA9 expression in human AML3 cells", "assay_type": "functional, cell-based"}, "TF-1": {"test_system": "TF-1", "assay": "Antiproliferative activity against human TF-1 cells", "assay_type": "functional, cell-based"}, "[3]": {"target": "Isocitrate dehydrogenase [NADP], mitochondrial (Homo sapiens, UniProt P48735, R172K)", "sequence (P48735 40-452 R172K limits assumed)": "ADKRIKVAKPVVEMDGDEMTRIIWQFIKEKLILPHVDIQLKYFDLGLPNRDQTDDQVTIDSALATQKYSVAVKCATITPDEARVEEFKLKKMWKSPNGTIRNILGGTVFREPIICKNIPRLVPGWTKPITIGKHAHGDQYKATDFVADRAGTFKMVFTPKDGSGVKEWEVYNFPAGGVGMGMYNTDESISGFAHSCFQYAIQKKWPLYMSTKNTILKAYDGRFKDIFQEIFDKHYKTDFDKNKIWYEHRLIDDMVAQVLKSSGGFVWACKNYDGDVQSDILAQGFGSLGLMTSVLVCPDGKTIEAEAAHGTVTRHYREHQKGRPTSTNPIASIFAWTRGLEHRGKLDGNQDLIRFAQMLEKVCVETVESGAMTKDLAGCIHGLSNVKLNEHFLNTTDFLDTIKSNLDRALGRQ", "assay": "Inhibition of FLAG-tagged IDH2 R172K mutant (unknown origin) extracted from baculovirus infected Sf9 cells"}, "[4]": {"target": "Isocitrate dehydrogenase [NADP], mitochondrial (Homo sapiens, UniProt P48735, R140Q)", "sequence (P48735 40-452 R140Q limits assumed)": "as the sequence (P48735 40-452 R172K limits assumed) above, with R101Q, K133R counted along it", "assay": "Inhibition of FLAG-tagged IDH2 R140Q mutant (unknown origin) extracted from baculovirus infected Sf9 cells"}, "HCT-116": {"test_system": "HCT-116", "assay": "Antiproliferative activity against human HCT-116 cells", "assay_type": "functional, cell-based"}, "U-87 MG": {"test_system": "U-87 MG", "assay": "Antiproliferative activity against human U87", "assay_type": "functional, cell-based, U-87MG ATCC"}}}
{"smiles": "C[C@H](O)c1cccc(NC(=O)c2nn(Cc3ccc(F)cc3)c3c2CN(C(=O)c2ccc[nH]2)C[C@H]3C)c1", "values": [{"measurement": "IC50", "setting": "[1]", "value": 1030, "unit": "nM"}]}
{"smiles": "C[C@H]1C[C@@H](n2c(Nc3ccc(OC(F)(F)F)cc3)nc3cc(CCC(=O)O)ccc32)CC(C)(C)C1", "note": "[BAY1436032]", "values": [{"measurement": "IC50", "setting": "[2]", "value": 60, "unit": "nM"}]}
{"smiles": "CC(C)(O)CNc1nc(Nc2ccnc(C(F)(F)F)c2)nc(-c2cccc(C(F)(F)F)n2)n1", "note": "[ENASIDENIB]", "values": [{"measurement": "IC50", "setting": "TF-1", "value": 20, "unit": "nM"}, {"measurement": "IC50", "setting": "[3]", "value": 200, "unit": "nM"}, {"measurement": "IC50", "setting": "[4]", "value": 320, "unit": "nM"}, {"measurement": "IC50", "setting": "HCT-116", "value": 530, "unit": "nM"}, {"measurement": "IC50", "setting": "U-87 MG", "value": 10, "unit": "nM"}]}
